target: T1, α4β1 integrin (Homo sapiens, UniProt P05556+P13612); assay: Inhibition of adhesion of calcein AM-labeled Ramos cells to CS1 (fibronectin) peptide-conjugated ovalbumin; assay type: cell-based; settings: Ramos; Table 2; compound at a concentration of 100 μM; read-out: % A (percent inhibition of cell adhesion)
T1 construct: endogenous in cells; host or cells: Ramos cells
Experimental: The ability of compounds of the present invention to inhibit binding is determined by a procedure in which a 26-amino acid peptide containing the CS1 sequence of fibronectin with an N-terminal Cys ([…]) was coupled to maleimide activated ovalbumin. Bovine serum albumin (BSA) and CS1 conjugated ovalbumin were coated onto 96-well polystyrene plates at 0.5 mg/ml in TBS (50 mM Tris, pH 7.5; 150 mM NaCl) at 4° C. for 16 hours. The plates were washed three times with TBS and blocked with TBS containing 3% BSA at room temperature for 4 hours. Blocked plates were washed three times in binding buffer (TBS; 1 mM MgCl2; 1 mM CaCl2; 1 mM MnCl2) prior to assay. Ramos cells fluorescently labeled with calcein AM were resuspended in binding buffer (10^7 cells/ml) and diluted 1:2 with same buffer with or without compound. The cells were added immediately to the wells (2.5×10^5 cells/well) and incubated for 30 minutes at 37° C. Following three washes with binding buffer, adherent cells were lysed and quantitated using a fluorometer. IC50 is defined as the dose required to give 50% inhibition. MS in Table 3 stands for Mass Spec. nd stands for not determined in the Tables. A stands for inhibition in Table 2, and the percent inhibition indicates the inhibition of cell adhesion when compound is included in the assay at a concentration of 100 μM. The lower the IC50 value and the greater the percentage of inhibition, the more efficient the compound is at prevention of cell adhesion.

T1 sequence (P13612 34-1032): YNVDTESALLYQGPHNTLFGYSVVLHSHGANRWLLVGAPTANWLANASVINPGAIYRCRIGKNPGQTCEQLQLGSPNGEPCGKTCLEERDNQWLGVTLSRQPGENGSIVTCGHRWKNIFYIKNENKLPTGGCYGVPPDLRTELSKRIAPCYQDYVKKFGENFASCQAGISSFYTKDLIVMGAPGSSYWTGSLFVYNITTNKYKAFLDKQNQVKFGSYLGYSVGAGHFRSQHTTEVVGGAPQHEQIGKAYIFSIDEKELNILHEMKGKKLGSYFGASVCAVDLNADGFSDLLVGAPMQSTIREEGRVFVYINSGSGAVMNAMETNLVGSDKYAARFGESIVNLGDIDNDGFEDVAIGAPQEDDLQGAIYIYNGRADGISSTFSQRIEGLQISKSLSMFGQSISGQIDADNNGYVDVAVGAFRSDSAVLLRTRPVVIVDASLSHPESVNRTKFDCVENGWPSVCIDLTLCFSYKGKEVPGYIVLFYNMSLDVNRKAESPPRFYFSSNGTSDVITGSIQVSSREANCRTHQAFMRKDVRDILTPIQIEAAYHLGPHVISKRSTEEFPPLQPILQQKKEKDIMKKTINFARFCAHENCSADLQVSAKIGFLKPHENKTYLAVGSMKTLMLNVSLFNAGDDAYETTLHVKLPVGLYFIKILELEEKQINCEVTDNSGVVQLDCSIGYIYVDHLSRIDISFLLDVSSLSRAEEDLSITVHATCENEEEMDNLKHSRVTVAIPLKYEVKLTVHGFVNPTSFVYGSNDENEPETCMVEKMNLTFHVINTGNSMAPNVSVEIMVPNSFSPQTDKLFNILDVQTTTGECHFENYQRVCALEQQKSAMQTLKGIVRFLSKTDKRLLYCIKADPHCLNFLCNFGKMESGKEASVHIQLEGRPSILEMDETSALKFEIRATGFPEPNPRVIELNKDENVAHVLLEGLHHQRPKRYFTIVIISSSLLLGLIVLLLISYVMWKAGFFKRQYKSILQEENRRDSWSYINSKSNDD
T1 sequence (P05556 21-798): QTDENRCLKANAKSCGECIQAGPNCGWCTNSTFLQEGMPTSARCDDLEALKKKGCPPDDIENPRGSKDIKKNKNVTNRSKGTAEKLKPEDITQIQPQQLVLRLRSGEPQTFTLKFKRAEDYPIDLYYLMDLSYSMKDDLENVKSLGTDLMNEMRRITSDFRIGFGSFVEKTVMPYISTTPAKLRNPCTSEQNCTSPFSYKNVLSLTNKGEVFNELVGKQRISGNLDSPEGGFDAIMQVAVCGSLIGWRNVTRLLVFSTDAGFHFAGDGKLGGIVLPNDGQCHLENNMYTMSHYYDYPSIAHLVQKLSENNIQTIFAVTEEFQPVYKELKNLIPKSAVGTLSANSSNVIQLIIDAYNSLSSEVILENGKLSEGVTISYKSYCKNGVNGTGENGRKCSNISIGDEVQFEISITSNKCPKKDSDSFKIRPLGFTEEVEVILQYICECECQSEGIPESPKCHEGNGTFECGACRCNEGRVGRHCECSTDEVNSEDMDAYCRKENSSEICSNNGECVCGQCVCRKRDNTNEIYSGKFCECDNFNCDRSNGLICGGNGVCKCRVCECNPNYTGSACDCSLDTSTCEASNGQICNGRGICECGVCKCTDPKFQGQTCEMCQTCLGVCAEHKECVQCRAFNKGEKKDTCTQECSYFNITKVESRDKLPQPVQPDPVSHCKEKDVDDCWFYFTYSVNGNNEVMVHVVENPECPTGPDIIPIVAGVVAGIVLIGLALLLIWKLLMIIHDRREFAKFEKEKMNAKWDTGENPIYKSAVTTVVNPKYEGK

| Structure (SMILES) | inhibition at 100 µM [%] |
| --- | --- |
| CCCC[C@@H](C(=O)N[C@@H](CC(=O)O)c1ccc2c(c1)OCO2)N1CCN(Cc2cccs2)C1=O [(3S)-3-(1,3-benzodioxol-5-yl)-3-({(2S)-2-[2-oxo-3-(2-thienylmethyl)-1-imidazolidinyl]hexanoyl}amino)propanoic acid] | 100 |

same assay, conditions: Table 2; Ramos cell adhesion to CS1-conjugated ovalbumin, 30 minutes at 37° C.

| Structure (SMILES) | IC50 [nM] |
| --- | --- |
| CCCC[C@@H](C(=O)N[C@@H](CC(=O)O)c1ccc2c(c1)OCO2)N1CCN(Cc2cccs2)C1=O [(3S)-3-(1,3-benzodioxol-5-yl)-3-({(2S)-2-[2-oxo-3-(2-thienylmethyl)-1-imidazolidinyl]hexanoyl}amino)propanoic acid] | 150 |

same assay, conditions: Table 3; Ramos cell adhesion to CS1-conjugated ovalbumin, 30 minutes at 37° C.

| Structure (SMILES) | IC50 [nM] |
| --- | --- |
| CCCC[C@@H](C(=O)N[C@@H](CC(=O)O)c1ccc2c(c1)OCO2)N1CC(=O)N(Cc2cccs2)c2ccccc2C1=O [(3S)-3-(1,3-benzodioxol-5-yl)-3-({(2S)-2-[2,5-dioxo-1-(2-thiophenylmethyl)-1,2,3,5-tetrahydro-4H-1,4-benzodiazepin-4-yl]hexanoyl}amino)propanoic acid] | 1500 |
| CCCC[C@@H](C(=O)N[C@@H](CC(=O)O)c1ccc2c(c1)OCO2)n1cccc(C(=O)c2ccccc2)c1=O [(3S)-3-(1,3-benzodioxol-5-yl)-3-({(2S)-2-[2-oxo-3-(phenylcarbonyl)-1(2H)-pyridinyl]hexanoyl}amino)propanoic acid] | 550 |
| CCCC[C@@H](C(=O)N[C@@H](CC(=O)O)c1ccc2c(c1)OCO2)n1cccc(Cc2ccccc2)c1=O [(3S)-3-(1,3-benzodioxol-5-yl)-3-({(2S)-2-[2-oxo-3-(phenylmethyl)-1(2H)-pyridinyl]hexanoyl}amino)propanoic acid] | 4 |
| CCCC[C@@H](C(=O)N[C@@H](CC(=O)O)c1ccc2c(c1)OCO2)N1CC(=O)N(Cc2cccs2)[C@@H](Cc2ccccc2)C1=O [(3S)-3-(1,3-benzodioxol-5-yl)-3-({(2S)-2-[(3S)-2,5-dioxo-3-(phenylmethyl)-4-(2-thiophenylmethyl)tetrahydro-1(2H)-pyrazinyl]hexanoyl}amino)propanoic acid] | 6000 |

same assay, conditions: Table 4; Ramos cell adhesion to CS1-conjugated ovalbumin, 30 minutes at 37° C.

| Structure (SMILES) | IC50 [nM] |
| --- | --- |
| CCCCC(C(=O)N[C@@H](CC(=O)O)c1ccc2c(c1)OCO2)n1cccc(Cc2ccccc2)c1=O (stereo partly drawn) [(3S)-3-(1,3-benzodioxol-5-yl)-3-{[2-(3-benzyl-2-oxopyridin-1(2H)-yl)hexanoyl]amino}propanoic acid] | 30 |
| CCCC[C@H](C(=O)N[C@@H](CC(=O)O)c1ccc2c(c1)OCO2)n1cc(C)c(O)c(Cc2ccccc2)c1=O [(3S)-3-(1,3-benzodioxol-5-yl)-3-{[(2R)-2-(3-benzyl-4-hydroxy-5-methyl-2-oxopyridin-1(2H)-yl)hexanoyl]amino}propanoic acid] | 2000 |
| CCCC[C@@H](C(=O)N[C@@H](CC(=O)O)c1ccc2c(c1)OCO2)n1cc(C)c(O)c(Cc2ccccc2)c1=O [(3S)-3-(1,3-benzodioxol-5-yl)-3-{[(2S)-2-(3-benzyl-4-hydroxy-5-methyl-2-oxopyridin-1(2H)-yl)hexanoyl]amino}propanoic acid] | 200 |
| CCCCC(C(=O)N[C@@H](CC(=O)O)c1ccc2ccn(C)c2c1)n1cc(C)cc(Cc2ccccc2)c1=O (stereo partly drawn) [(3S)-3-(1-methyl-1H-indol-6-yl)-3-({2-[5-methyl-2-oxo-3-(phenylmethyl)-1(2H)-pyridinyl]hexanoyl}amino)propanoic acid] | 10 |
| CCCCC(C(=O)N[C@@H](CC(=O)O)c1ccc2c(c1)CCC2)n1cc(C)cc(Cc2ccccc2)c1=O (stereo partly drawn) [(3S)-3-(2,3-dihydro-1H-inden-5-yl)-3-({2-[5-methyl-2-oxo-3-(phenylmethyl)-1(2H)-pyridinyl]hexanoyl}amino)propanoic acid] | 63 |
| CCCCC(C(=O)N[C@@H](CC(=O)O)c1ccc2c(c1)CCC2)n1cc(C)cc(Cc2ccc3ccccc3c2)c1=O (stereo partly drawn) [(3S)-3-(2,3-dihydro-1H-inden-5-yl)-3-({2-[5-methyl-3-(2-naphthalenylmethyl)-2-oxo-1(2H)-pyridinyl]hexanoyl}amino)propanoic acid] | 283 |
| CCCCC(C(=O)N[C@@H](CC(=O)O)c1cccc(F)c1)n1cc(C)cc(Cc2ccccc2)c1=O (stereo partly drawn) [(3S)-3-(3-fluorophenyl)-3-({2-[5-methyl-2-oxo-3-(phenylmethyl)-1(2H)-pyridinyl]hexanoyl}amino)propanoic acid] | 13 |
| CCCCC(C(=O)N[C@@H](CC(=O)O)c1cccc(OC(C)C)c1)n1ccc(CCc2ccccc2)cc1=O (stereo partly drawn) [(3S)-3-(3-isopropoxyphenyl)-3-({2-[2-oxo-4-(2-phenylethyl)pyridin-1(2H)-yl]hexanoyl}amino)propanoic acid] | 95 |
| CCCCC(C(=O)N[C@@H](CC(=O)O)c1cccc(OC(C)C)c1)n1cc(C)cc(Cc2ccccc2OC)c1=O (stereo partly drawn) [(3S)-3-(3-isopropoxyphenyl)-3-({2-[3-(2-methoxybenzyl)-5-methyl-2-oxopyridin-1(2H)-yl]hexanoyl}amino)propanoic acid] | 4 |
| CCCCC(C(=O)N[C@@H](CC(=O)O)c1ccc(CC)cc1)n1cc(C)cc(Cc2ccccc2)c1=O (stereo partly drawn) [(3S)-3-(4-ethylphenyl)-3-({2-[5-methyl-2-oxo-3-(phenylmethyl)-1(2H)-pyridinyl]hexanoyl}amino)propanoic acid] | 40 |
| CCCCC(C(=O)N[C@@H](CC(=O)O)c1cccc(OC(C)C)c1)n1cc(C)cc(Cc2c(Cl)cccc2Cl)c1=O (stereo partly drawn) [(3S)-3-({2-[3-(2,6-dichlorobenzyl)-5-methyl-2-oxopyridin-1(2H)-yl]hexanoyl}amino)-3-(3-isopropoxyphenyl)propanoic acid] | 275 |
| CCCCC(C(=O)N[C@@H](CC(=O)O)c1cccc(OC(C)C)c1)n1cc(C)cc(Cc2ccccc2Cl)c1=O (stereo partly drawn) [(3S)-3-({2-[3-(2-chlorobenzyl)-5-methyl-2-oxopyridin-1(2H)-yl]hexanoyl}amino)-3-(3-isopropoxyphenyl)propanoic acid] | 5 |
| CCCCC(C(=O)N[C@@H](CC(=O)O)c1ccc(C)cc1)n1cc(C)cc(Cc2ccccc2Cl)c1=O (stereo partly drawn) [(3S)-3-({2-[3-(2-chlorobenzyl)-5-methyl-2-oxopyridin-1(2H)-yl]hexanoyl}amino)-3-(4-methylphenyl)propanoic acid] | 15 |
| CCCCC(C(=O)N[C@@H](CC(=O)O)c1ccccc1)n1cc(C)cc(Cc2ccccc2Cl)c1=O (stereo partly drawn) [(3S)-3-({2-[3-(2-chlorobenzyl)-5-methyl-2-oxopyridin-1(2H)-yl]hexanoyl}amino)-3-phenylpropanoic acid] | 12 |
| CCCCC(C(=O)N[C@@H](CC(=O)O)c1cccc(OC(C)C)c1)n1cc(C)cc(Cc2ccccc2OCC)c1=O (stereo partly drawn) [(3S)-3-({2-[3-(2-ethoxybenzyl)-5-methyl-2-oxopyridin-1(2H)-yl]hexanoyl}amino)-3-(3-isopropoxyphenyl)propanoic acid] | 19 |
| CCCCC(C(=O)N[C@@H](CC(=O)O)c1cccc(OC(C)C)c1)n1cc(C)cc(Cc2cccc(Cl)c2)c1=O (stereo partly drawn) [(3S)-3-({2-[3-(3-chlorobenzyl)-5-methyl-2-oxopyridin-1(2H)-yl]hexanoyl}amino)-3-(3-isopropoxyphenyl)propanoic acid] | 20 |
| CCCCC(C(=O)N[C@@H](CC(=O)O)c1cccc(OCCC)c1)n1cc(C)cc(Cc2cccc(Cl)c2)c1=O (stereo partly drawn) [(3S)-3-({2-[3-(3-chlorobenzyl)-5-methyl-2-oxopyridin-1(2H)-yl]hexanoyl}amino)-3-(3-propoxyphenyl)propanoic acid] | 23 |
| CCCCC(C(=O)N[C@@H](CC(=O)O)c1cccc(OC(C)C)c1)n1cc(C)cc(Cc2cccc(Cl)c2Cl)c1=O (stereo partly drawn) [(3S)-3-({2-[3-[(2,3-dichlorophenyl)methyl]-5-methyl-2-oxo-1(2H)-pyridinyl]hexanoyl}amino)-3-{3-[(1-methylethyl)oxy]phenyl}propanoic acid] | 68 |
| CCCCC(C(=O)N[C@@H](CC(=O)O)c1cccc(OC(C)C)c1)n1cc(C)cc(Cc2ccc(F)cc2Cl)c1=O (stereo partly drawn) [(3S)-3-({2-[3-[(2-chloro-4-fluorophenyl)methyl]-5-methyl-2-oxo-1(2H)-pyridinyl]hexanoyl}amino)-3-{3-[(1-methylethyl)oxy]phenyl}propanoic acid] | 17 |
| CCCCC(C(=O)N[C@@H](CC(=O)O)c1cccc(OC(C)C)c1)n1cc(C)cc(Cc2c(Cl)cc(Cl)cc2OC)c1=O (stereo partly drawn) [(3S)-3-({2-[3-{[2,4-dichloro-6-(methyloxy)phenyl]methyl}-5-methyl-2-oxo-1(2H)-pyridinyl]hexanoyl}amino)-3-{3-[(1-methylethyl)oxy]phenyl}propanoic acid] | 275 |
| CCCCC(C(=O)N[C@@H](CC(=O)O)c1cccc(CC(C)C)c1)n1cc(C)cc(Cc2ccccc2)c1=O (stereo partly drawn) [(3S)-3-({2-[5-methyl-2-oxo-3-(phenylmethyl)-1(2H)-pyridinyl]hexanoyl}amino)-3-[3-(2-methylpropyl)phenyl]propanoic acid] | 10 |
| CCCCC(C(=O)N[C@@H](CC(=O)O)c1ccccc1)n1cc(C)cc(Cc2cccc3ccccc23)c1=O (stereo partly drawn) [(3S)-3-({2-[5-methyl-3-(1-naphthalenylmethyl)-2-oxo-1(2H)-pyridinyl]hexanoyl}amino)-3-phenylpropanoic acid] | 350 |
| CCCCC(C(=O)N[C@@H](CC(=O)O)c1ccc(C)cc1)n1cc(C)cc(Cc2ccc3ccccc3c2)c1=O (stereo partly drawn) [(3S)-3-({2-[5-methyl-3-(2-naphthalenylmethyl)-2-oxo-1(2H)-pyridinyl]hexanoyl}amino)-3-(4-methylphenyl)propanoic acid] | 400 |
